One substance from US6485929B1, “Method for inhibiting CD95-independent apoptosis in AIDS” (Deutsches Krebsforschungzentrum Stiftung des offentlichen …, priority 1998, dated 2002) can be followed below.

This assay has as its system HPB-ALL cells. The assay is described as follows: Inhibition of CD95-independent apoptosis induced by anti-CXCR4 antibody (12G5) in HPB-ALL cells. The format is cell-based. The settings on record: HPB-ALL cells incubated with 250 nM SDF-1α at 37° C. for 30 minutes, then induction with anti-CXCR4 antibody 12G5. The procedure: 1×10^5 HPB-ALL cells are incubated with 5 μg/ml mouse anti-CD4 antibody (HP2/6) and mouse anti CXCR4 antibody (12G5), respectively, at 37° C. for 15 minutes. Then, the bound antibodies are reacted with sheep anti-mouse antibodies (100 μg/ml, Boehringer). Apoptosis detection is carried out in which an FSC/SSC analysis is run in an FACScan cytometer at various times (cf. FIG. 1). HPB-ALL cells are incubated with 250 nM SDF-1α at 37° C. for 30 minutes. The cells are then subjected to an apoptosis induction using the mouse anti-CXCR4 antibody (12G5), as described above under item I. (a).

For the substance SDF-1α, the “Prevention of induction of CD95-independent apoptosis” value is “can be prevented”.
